Reference: patent publication US20230331604A1, “METHOD FOR THE ELECTROCHEMICAL CONTROL OF THE PHOTOSYNTHETIC METABOLISM OF PURPLE NON-SULFUR BACTERIA AND REDOX MEDIATORS THEREOF” (Zuccato HC S.r.l., priority 2020, published 2023)

How the values were obtained:
[1] = equilibrium potential of the redox mediator; format: physicochemical; settings: vs SCE reference electrode
Excerpt: This is enabled by the use of suitable fat-soluble redox mediators ([2], [3]) capable of permeabilizing the bacterial membrane and entering the cytoplasm, in order to alter the oxidation state of the disulfide bond present in type A thioredoxins, as well as by appropriate light irradiation.

[2] = system: Rhodobacter sphaeroides (ATCC 55304); test: bacteriochlorophyll synthesized by Rhodobacter sphaeroides under electrochemical control vs aerobic growth (absorption spectra); format: cell-based; settings: 50 nM safranin, acetone/methanol extract, absorbance normalized to 660 nm
Description: A homemade potentiostat was used as an external source of free energy, capable of providing a current of up to 100 mA and keeping the potential constant within the range of −2 V÷+2 V).
The materials of the electrodes used are: • Working electrode: stainless steel grid with 1 mm mesh spacing. • Counter electrode: graphite bars (0.8 cm in diameter, 30 cm long) • Reference electrode: (SCE)
Safranin T, molecular mass equal to 350.85. (Fluka) at a concentration equal to 50 nM, was used as redox mediator in the cell.
The solution inside the fermenter/reactor was kept under mild stirring to facilitate the recirculation of the redox mediator molecules.

equilibrium potential [1]: about −540 mV
Compound: Cc1cc2nc3cc(C)c(N)cc3[n+](-c3ccccc3)c2cc1N.[Cl-] [Safranin T, safranin T]
intensity of bacteriochlorophyll absorption bands compared to the corresponding aerobic population [2]: almost tripled
